How the values were obtained:
[1] = species: Homo sapiens; assay: Inhibitory effect (10e-6 M) on the 25-hydroxyvitamin D3-1-hydroxylase activity
[2] = species: Homo sapiens; assay: 25-hydroxyvitamin D3-1-hydroxylase activity (10e-6 M) was measured as %control
[3] = biological target: T1, Vitamin D-binding protein (Homo sapiens) (UniProt P02774); assay: Relative competitive index for binding to vitamin D binding protein
T1 sequence (whole entry): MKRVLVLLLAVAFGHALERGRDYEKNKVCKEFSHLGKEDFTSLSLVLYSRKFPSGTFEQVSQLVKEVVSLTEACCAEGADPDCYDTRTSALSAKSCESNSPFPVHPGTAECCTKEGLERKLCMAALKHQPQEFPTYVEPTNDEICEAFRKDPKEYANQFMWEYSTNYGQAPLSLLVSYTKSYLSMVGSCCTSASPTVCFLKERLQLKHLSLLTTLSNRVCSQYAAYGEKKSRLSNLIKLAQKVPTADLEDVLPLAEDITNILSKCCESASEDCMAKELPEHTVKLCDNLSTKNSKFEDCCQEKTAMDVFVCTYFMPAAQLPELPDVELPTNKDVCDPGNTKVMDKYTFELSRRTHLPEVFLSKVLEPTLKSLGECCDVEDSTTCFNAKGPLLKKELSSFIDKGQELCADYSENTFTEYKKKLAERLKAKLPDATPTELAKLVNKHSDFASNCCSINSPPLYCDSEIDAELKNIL

[4] = test system: Gallus gallus; assay: Effect on intestinal calcium absorption was measured in vivo, in the vitamin D deficient chick; type: functional; set-up: reference not given here
[5] = test system: Gallus gallus; assay: Effect on bone calcium mobilization was measured in vivo, in the vitamin D deficient chick; type: functional, Bone element; set-up: reference not given here
[6] = test system: Vitamin D3 receptor (Gallus gallus); assay: Relative competitive index values for binding to 1,25(OH)2D3 receptor of chick intestine
[7] = biological target: Vitamin D3 receptor (Homo sapiens) (UniProt P11473); assay: Relative competitive index values for binding to 1,25(OH)2D3 receptor of human HL-60 cells
[8] = biological target: Vitamin D3 receptor (Homo sapiens) (UniProt P11473); assay: as above; remark: listed apart in the source
[9] = species: Homo sapiens; assay: Inhibitory effect (10e-6 M) on the 25-OH-D3-1-hydroxylase activity; type: functional
[10] = species: Homo sapiens; assay: 25-OH-D3-1-hydroxylase activity (10e-6 M) was measured as %control; type: functional

Row | Activity [1] [pmol/10 min] | Control [2] [%] | RCI [3] | RCI [6] | Activity [9] [pmol/10 min] | Control [10] [%] | SMILES | Ratio [4] | Ratio [5] | RCI [7] | RCI [8]
1 | 16.9 | 97 | 980 | 28 | – | – | C=C1/C(=C\C=C2/CCC[C@]3(C)[C@@H]([C@H](C)Cc4cccc(O)c4)CC[C@@H]23)C[C@@H](O)C[C@@H]1O | 0.28 | 1 | 27 | –
2 | 17.2 | 99 | 2 | 62 | – | – | C=C1/C(=C\C=C2/CCC[C@]3(C)[C@@H]([C@H](C)Cc4cccc(C(C)(C)O)c4)CC[C@@H]23)C[C@@H](O)C[C@@H]1O | 30.7 | 7.7 | 32 | –
3 | 16.7 | 96 | – | 1.4 | – | – | C=C1/C(=C\C=C2/CCC[C@]3(C)[C@@H]([C@H](C)Cc4cccc(C)c4)CC[C@@H]23)C[C@@H](O)C[C@@H]1O | 0.31 | 0.06 | 3.5 | –

Further lines, the compound ahead of its results:

Row | SMILES | Activity [1] [pmol/10 min] | Control [2] [%] | RCI [3] | RCI [6] | Activity [9] [pmol/10 min] | Control [10] [%] | Ratio [4] | Ratio [5] | RCI [7] | RCI [8]
4 | C=C1/C(=C\C=C2/CCC[C@]3(C)[C@@H]([C@H](C)CCCC(C)(C)O)CC[C@@H]23)C[C@@H](O)C[C@@H]1O | 2.1 | 12 | – | – | – | – | – | – | – | –
5 | C=C1/C(=C\C=C2/CCC[C@]3(C)[C@@H]([C@H](C)Cc4ccc(O)cc4)CC[C@@H]23)C[C@@H](O)C[C@@H]1O | – | – | 1980 | 5 | 18.1 | 104 | 0.04 | 0.08 | – | 12

Source: ChEMBL document CHEMBL1125933, “Arocalciferols: synthesis and biological evaluation of aromatic side-chain analogues of 1 alpha,25-dihydroxyvitamin D3(1a)” (1991)
